Data set [1] concerns the target T1, CYP3A4 (Homo sapiens (Human), UniProt P08684). Briefly: CYP3A4 fluorescent MBI test. The class given is in vitro ADME. Conditions: substrate 7-BFC, pre-reaction time 0 or 30 minutes. As to the method:
The CYP3A4 fluorescent MBI test is a test of investigating enhancement or CYP3A4 inhibition of a compound by a metabolism reaction, and the test was performed using, as CYP3A4 enzyme expressed in Escherichia coli and employlng, as an index, a reaction in which 7-benzyloxytrifluoromethylchmarin (BFC) is debenzylated by the CYP3A4 enzyme to produce a metabolite, 7-hydroxytrifluoromethylchmarin (HFC) emitting fluorescent light.
The reaction conditions were as follows: substrate, 5.6 μmol/L 7-BFC; pre-reaction time, 0 or 30 minutes; reaction time, 15 minutes; reaction temperature, 25° C.
An enzyme in a K-Pi buffer (pH 7.4) and a test drug solution as a pre-reaction. solution were added to a 96-well plate at the composition of the pre-reaction, a part of it was transferred to another 96-well plate so that it was 1/10 diluted by a substrate in a K-Pi buffer, NADPH as a co-factor was added to initiate a reaction as an index (without preincubation) and, after a predetermined time of a reaction, acetonitrile:0.5 mol/L Tris (trishydroxyaminomethane)=4:1 was added to stop the reaction. […] For the plate on which each index reaction had been performed, a fluorescent value of 7-HFC which is a metabolite was measured with a fluorescent plate reader. […]

Data set [2] addresses CYP2C19 (Homo sapiens (Human), UniProt P33261). Briefly: CYP inhibition test, pooled human hepatic microsome, mephenytoin 4'-hydroxylation. The class given is in vitro ADME. Conditions: substrate S-mephenitoin. As to the method:
(§1) Using commercially available pooled human hepatic microsome, and employlng, as markers, 7-ethoxyresorufin O-deethylation (CYP1A2), tolbutamide methyl-hydroxylation (CYP2C9), mephenyloin 4′-hydroxylation (CYP2C19), dextromethorphan O-demethylation (CYP2D6), and terfenedine hydroxylation as typical substrate metabolism reactions of human main five CYP enzyme forms (CYP1A2, 2C9, 2C19, 2D6, 3A4), an inhibitory degree of each metabolite production amount by a test compound was assessed.
(§2) The reaction conditions were as follows: substrate, 0.5 μmol/L ethoxyresorufin (CYP1A2), 100 μmol/L tolbutamide (CYP2C9), 50 μmol/L S-mephenitoin (CYP2C19), 5 μmol/L dextromethorphan (CYP2D6), 1 μmol/L terfenedine (CYP3A4) reaction time, 15 minutes; reaction temperature, 37° C; enzyme, pooled human hepatic microsome 0.2 mg protein/mL; test drug concentration, 1.0, 5.0, 10, 20 μmol/L (four points).
(§3) Each five kinds of substrates, human hepatic microsome, or a test drug in 50 mmol/L Hepes buffer as a reaction solution was added to a 96-well plate at the composition as described above, NADPH, as a cofactor was added to initiate metabolism reactions as markers and, after the incubation at 37° C. for 15 minutes, a methanol/acetonitrile=1/1 (v/v) solution was added to stop the reaction. After the centrifugation at 3000 rpm for 15 minutes, resorufin (CYP1A2 metabolite) in the supernatant was quantified by a fluorescent multilabel counter and tributamide hydroxide (CYP2CP metabolite), mephenyloin 4′ hydroxide (CYP2C19 metabolite), […] (CYP2D6 metabolite), and terfenadine alcohol (CYP3A4 metabolite) were quantified by LC/MS/MS.

Data set [3] has as its target T1, CYP3A4. In words: CYP inhibition test, pooled human hepatic microsome, terfenedine hydroxylation. In kind it is in vitro ADME. Conditions: substrate terfenedine. How it is done: as §1, §2, §3
Data set [4] has as its system serum. In words: Protein binding test (equilibrium dialysis, serum). In kind it is in vitro ADME. Conditions: 37° C., 24 hours, 2 μg/mL. How it is done: The unbound fraction the present compound in serum was measured using serum of various species.
The reactive conditions are as follows: Evaluation method, Equilibrium dialysis; Reaction time, 24 hours; Reaction temperature, 37° C.; Concentration of the present compound, 2 μg/mL.
The test solution was added to each serum and the mixture was agitated to prepare the serum samples at the concentration mentioned above. Each serum sample was added into one side or the cell and phosphate buffered saline (PBS) was added into the other side to perform equilibrium dialysis at 37° C. for 24 hours. Then, the concentration of the compounds in the samples that were obtained from both sides was measured by LC/MS/MS.
(Result) The ratio of PBS concentration to serum concentration is expressed as unbound fraction.
In general terms: Equilibrium dialysis compares concentrations on both sides of a semipermeable membrane.

The subject of data set [5] is partial sciatic nerve ligation model in rats. In words: Analgesic effect in a Seltzer model, Evaluation (1): mechanical allodynia, von Frey filaments. In kind it is in vivo. The note with it: rat, oral single administration, at 3 hours, read-out: analgesic effect, percent reversal of mechanical allodynia. The text has this: Rats were anaesthetized using isoflurane/O2 inhalation anaesthesia. After induction of anesthesia, the left thigh was shaved. An incision was made in the skin just below the hip bone. The muscle was bluntly dissected to expose the sciatic nerve. One third (⅓) to one half (½) of the sciatic nerve thickness was tightly ligated and the wound was closed. The right thigh is used as a sham-operated control. The right thigh undergoes an identical procedure with the left hind limb, however, the sciatic nerve is not manipulated or ligated.
Two weeks after nerve ligation, the effect on mechanical allodynia was assessed using a series of von Frey filaments. For habituation, the rats were placed into a plastic cage on a wire mesh bottom. The mechanical sensitivity (mechanical threshold) of the hind paws was estimated with a series of von Frey filaments (0.4-20 g). The measurement of mechanical sensitivity of the right and left hind paws was performed to obtain predose mechanical sensitivity. The rats showing thee threshold change from 0.6 to 2 g (in nerve ligated side) and 8 to 15 g (in sham operated side) were used in the experiments. On the day belone the experiment, the rats were evaluated with a series of von Frey filaments to familiarize them with the test procedure. The adopted animal was administrated with the test compounds. The test compounds were homogenized with mortar and pestle and suspended or diluted in 0.5% Methyl Cellulose to prepare 0.1-2.0 mg/mL/kg suspension and orally administered to rat using a syringe attached with a sonde. Post-dose mechanical sensitivities of the right and left hind paws were measured at approximately 1 to 5 hours after drug administration. Percent reversal of mechanical allodynia for each rat was calculated using the following formula. The analgesic effects of the compounds were compared.

Three molecules from patent US9718790B2, “Triazine derivative and pharmaceutical composition having an analgesic activity comprising the same” (SHIONOGI & CO., LTD., priority 2010, dated 2017) can be followed below.

T1 sequence (P08684 whole entry): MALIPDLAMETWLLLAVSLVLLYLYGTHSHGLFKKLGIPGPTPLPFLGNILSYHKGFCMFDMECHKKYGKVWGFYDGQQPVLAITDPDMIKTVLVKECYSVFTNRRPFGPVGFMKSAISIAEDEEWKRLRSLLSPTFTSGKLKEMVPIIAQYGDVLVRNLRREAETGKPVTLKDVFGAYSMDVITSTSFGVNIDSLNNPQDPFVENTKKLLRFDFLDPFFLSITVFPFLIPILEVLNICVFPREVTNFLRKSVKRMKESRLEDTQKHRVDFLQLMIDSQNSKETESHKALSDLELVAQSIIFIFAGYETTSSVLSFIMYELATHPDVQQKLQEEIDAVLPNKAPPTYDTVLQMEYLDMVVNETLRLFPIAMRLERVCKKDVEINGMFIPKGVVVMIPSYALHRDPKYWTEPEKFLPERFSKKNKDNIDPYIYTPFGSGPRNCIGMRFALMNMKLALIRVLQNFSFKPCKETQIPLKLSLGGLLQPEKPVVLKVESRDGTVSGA
CYP2C19, sequence (P33261 whole entry): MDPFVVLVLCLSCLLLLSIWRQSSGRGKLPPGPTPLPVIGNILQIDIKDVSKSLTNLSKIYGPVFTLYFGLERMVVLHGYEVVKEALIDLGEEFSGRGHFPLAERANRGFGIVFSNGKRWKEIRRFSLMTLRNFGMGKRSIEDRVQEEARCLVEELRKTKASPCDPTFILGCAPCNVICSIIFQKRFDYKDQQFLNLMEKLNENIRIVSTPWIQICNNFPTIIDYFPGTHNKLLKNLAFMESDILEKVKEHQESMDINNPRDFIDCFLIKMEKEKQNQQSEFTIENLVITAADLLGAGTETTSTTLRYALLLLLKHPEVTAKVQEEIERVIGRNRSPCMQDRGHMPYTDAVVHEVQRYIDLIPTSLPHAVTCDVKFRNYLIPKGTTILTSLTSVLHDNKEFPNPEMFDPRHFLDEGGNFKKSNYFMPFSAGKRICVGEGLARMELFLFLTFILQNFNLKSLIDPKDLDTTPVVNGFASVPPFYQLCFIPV

Consider `C[C@@H](Cn1c(=O)[nH]/c(=N\c2ccc(OCC3CC3)cc2)n(Cc2ccc(Cl)cc2)c1=O)C(=O)O` [Compound I-0837], for which the values for the IC50 in data set [1], in data set [2] and in data set [3] were at most 3 µM, above 20 µM and above 20 µM, respectively. Moreover, the “unbound fraction (ratio of PBS concentration to serum concentration)” value in data set [4] was 2.1%.

Take `CCn1c(=O)[nH]/c(=N\c2ccc(Oc3ccnc(C(=O)O)c3)cc2)n(Cc2ccc(Cl)cc2)c1=O` [Compound I-1788]: the half-maximal inhibitory concentration (IC50) in data set [2] and in data set [3] was above 20 µM throughout.

With `O=c1[nH]/c(=N\c2ccc(Oc3ccon3)cc2)n(Cc2ccc(Cl)cc2)c(=O)n1CC(CO)CO` [Compound I-2291], the inhibition in vivo at 3 mg/kg in data set [5] was above 30%. Further, the half-maximal inhibitory concentration (IC50) in data set [2] and in data set [3] was above 20 µM each time. Further, the “unbound fraction (ratio of PBS concentration to serum concentration)” value in data set [4] amounted to 4.5%.

One may read the IC50 as the concentration needed to halve the response being measured. Lower therefore signals inhibition by little substance.
